Experiments:
[1] = system: LPS-induced TNFalpha in Human PBMCs; assay: Inhibition of LPS-induced TNFalpha in Human PBMCs; format: cell-based; settings: PBMC, 100 ng/ml LPS, 6 hr, read-out: TNFa Inhibition IC50
Procedure: Cryopreserved human PBMCs were obtained from AllCells (cat# PB003F). After thawing/dilution protocols using RPMI medium supplemented with 5% FBS (heat inactivated), 100 ul/well of 1×10^6 cells/ml were plated into 96 well tissue culture plates (Corning). Cells were then pre-incubated for 1 hr at 37° C. in humidified 5% CO2 and 95% air with test compounds diluted in DMSO (final DMSO concentration 0.3%). Each compound was tested at 10 concentrations in duplicate wells. After the pre-incubation, 100 ng/ml LPS (E. Coli; Sigma) in RPMI media with 5% FBS was added for a 6 hr incubation at 37° C. in humidified 5% CO2 and 95% air. Controls on each plate included cells and LPS only, cells and media only (no LPS), and media only. After the 6 hr incubation, plates were centrifuged and the supernatants transferred to a new plate and frozen for subsequent TNFalpha analysis. Human TNFalpha was analyzed by ELISA according to the manufacturer's instructions (BD Sciences, BD OptEIA™ Cat#550610) and analyzed on a SpectraMax M series (Molecular Devices) microplate reader at OD 450 nm. IC50s were calculated using XLFit4 curve fitting software (IDBS) and a 4-parameter one-site sigmoid dose response fit.

ASK1 = ASK1 (Homo sapiens (Human), UniProt Q99683); assay: ASK1 Kinase Assay (Promega ASK1 Kinase Enzyme System, ADP-Glo); format: biochemical; settings: enzyme 50 nM, ATP 10 μM
ASK1, sequence (Q99683 649-946 limits assumed): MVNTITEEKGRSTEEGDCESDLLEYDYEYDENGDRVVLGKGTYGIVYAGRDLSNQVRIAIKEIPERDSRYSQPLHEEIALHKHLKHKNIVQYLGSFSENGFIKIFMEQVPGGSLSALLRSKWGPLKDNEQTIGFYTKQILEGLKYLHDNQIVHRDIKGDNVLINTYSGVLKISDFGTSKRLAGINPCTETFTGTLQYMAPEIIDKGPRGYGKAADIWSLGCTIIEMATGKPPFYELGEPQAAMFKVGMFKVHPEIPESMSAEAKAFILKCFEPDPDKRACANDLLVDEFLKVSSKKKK
Procedure: The ASK1 enzymatic assay was run following Promega ASK1 Kinase Enzyme System (Cat #V3881). The kit provides the protocol, enzymes and all reagents necessary to run an assay. Firstly, the compounds, enzyme, substrate and ATP were diluted in provided assay buffer. The final concentration of the enzyme was 50 nM, substrate (Myelin basic protein) 1 μg/ml and ATP 10 μM. The compound and the enzyme were pre-incubated in a 384 well white solid bottom plate (Greiner, Cat#784075) for 10 minutes. After incubation, the substrate and ATP were added and incubated for further 60 minutes. After 60 minutes, ADP-Glo™ was added and plate was incubated for another 40 minutes. After 40 minutes, Kinase Detection Reagent was added and the plate was incubated for 45 minutes. After 45 minutes, plate was read on Perkin Elmer EnVision using luminescence read (0.5 seconds/well).

| Structure (SMILES) | IC50 (ASK1) | IC50 [1] |
| --- | --- | --- |
| CN(C)C1CCN(C(=O)c2ccc3c(c2)CN(c2cccc(-c4nncn4C4CC4)n2)C3=O)CC1 [Compound 15, 2-(6-(4-cyclopropyl-4H-1,2,4-triazol-3-yl)pyridin-2-yl)-5-(4-(dimethylamino)piperidine-1-carbonyl)isoindolin-1-one] | < 0.2 µM | 2 to 10 µM |
| CC(=O)N1CCN(C(=O)c2ccc3c(c2)CN(c2cccc(-c4nncn4C4CC4)n2)C3=O)CC1 [Compound 16, 5-(4-acetylpiperazine-1-carbonyl)-2-(6-(4-cyclopropyl-4H-1,2,4-triazol-3-yl)pyridin-2-yl)isoindolin-1-one] | < 0.2 µM | > 0.01 µM |
| CC(=O)NC1CCN(C(=O)c2ccc3c(c2)CN(c2cccc(-c4nncn4C4CC4)n2)C3=O)CC1 [Compound 17, N-(1-(2-(6-(4-cyclopropyl-4H-1,2,4-triazol-3-yl)pyridin-2-yl)-1-oxoisoindoline-5-carbonyl)piperidin-4-yl)acetamide] | < 0.2 µM | > 0.01 µM |
| O=C1c2cc(-c3cncnc3)ccc2CN1c1cccc(-c2nncn2C2CC2)n1 [Compound 43, 2-(6-(4-cyclopropyl-4H-1,2,4-triazol-3-yl)pyridin-2-yl)-6-(pyrimidin-5-yl)isooindolin-1-one] | < 0.2 µM | 2 to 10 µM |
| Cc1ncc(-c2ccc3c(c2)C(=O)N(c2cccc(-c4nncn4C4CC4)n2)C3)cn1 [Compound 44, 2-(6-(4-cyclopropyl-4H-1,2,4-triazol-3-yl)pyridin-2-yl)-6-(2-methylpyrimidin-5-yl)isoindolin-1-one] | < 0.2 µM | 2 to 10 µM |
| CC(C)Oc1cc2c(cc1-c1cccnc1)C(=O)N(c1cccc(-c3nncn3C3CC3)n1)C2 [Compound 68, 2-(6-(4-cyclopropyl-4H-1,2,4-triazol-3-yl)pyridin-2-yl)-5-isopropoxy-6-(pyridin-3-yl)isoindolin-1-one] | < 0.2 µM | < 2 µM |
| O=C1c2cc(-c3cccnc3)c(OC3CCCC3)cc2CN1c1cccc(-c2nncn2C2CC2)n1 [Compound 69, 5-(Cyclopentyloxy)-2-(6-(4-cyclopropyl-4H-1,2,4-triazol-3-yl)pyridin-2-yl)-6-(pyridin-3-yl)isoindolin-1-one] | < 0.2 µM | < 2 µM |
| O=C(c1cc2c(cc1-c1cccnc1)C(=O)N(c1cccc(-c3nncn3C3CC3)n1)C2)N1CCCC1 [Compound 71, 2-(6-(4-cyclopropyl-4H-1,2,4-triazol-3-yl)pyridin-2-yl)-6-(pyridin-3-yl)-5-(pyrrolidine-1-carbonyl)isoindolin-1-one] | < 0.2 µM | 2 to 10 µM |

The next lines start with results.

| IC50 (ASK1) | Structure (SMILES) | IC50 [1] |
| --- | --- | --- |
| < 0.2 µM | O=C(c1ccc2c(c1)CN(c1cccc(-c3nncn3C3CC3)n1)C2=O)N1CCCCC1 [Compound 11, 2-(6-(4-cyclopropyl-4H-1,2,4-triazol-3-yl)pyridin-2-yl)-5-(piperidine-1-carbonyl)isoindolin-1-one] | 2 to 10 µM |
| < 0.2 µM | O=C(c1ccc2c(c1)CN(c1cccc(-c3nncn3C3CC3)n1)C2=O)N1CCC(O)CC1 [Compound 12, 2-(6-(4-cyclopropyl-4H-1,2,4-triazol-3-yl)pyridin-2-yl)-5-(4-hydroxypiperidine-1-carbonyl)isoindolin-1-one] | > 0.01 µM |
| < 0.2 µM | CC1(O)CCN(C(=O)c2ccc3c(c2)CN(c2cccc(-c4nncn4C4CC4)n2)C3=O)CC1 [Compound 13, 2-(6-(4-cyclopropyl-4H-1,2,4-triazol-3-yl)pyridin-2-yl)-5-(4-hydroxy-4-methylpiperidine-1-carbonyl)isoindolin-1-one] | > 0.01 µM |
| < 0.2 µM | COC1CCN(C(=O)c2ccc3c(c2)CN(c2cccc(-c4nncn4C4CC4)n2)C3=O)CC1 [Compound 14, 2-(6-(4-cyclopropyl-4H-1,2,4-triazol-3-yl)pyridin-2-yl)-5-(4-methoxypiperidine-1-carbonyl)isoindolin-1-one] | 2 to 10 µM |

— patent publication US10150755B2, “ASK1 inhibitor compounds and uses thereof” (Seal Rock Therapeutics, Inc., priority 2017, dated 2018)
